Key:
Aspergillus niger = test: Test Method A: fungus formation on treated paint/plaster discs, Aspergillus niger; assay type: cell-based
Procedure: (§1) The biological effectiveness of a product according to Example 1 was tested both in an aqueous acrylate paint and in an aqueous plaster dispersion as follows:
(§2) To 50 grams of a usual acrylic paint (for composition see Table I) and of a plaster (for composition see Table II) composition to be tested, the fungicidal compound of Example 1 was added in different concentrations. After extensive stirring, the samples were coated on a sheet of pasteboard and dried for 24 hours at room temperature and for an additional 24 hours at 40° C. These paper samples were then subjected for 72 hours to a water sprayout test whereby 1 liter of water per minute was flushed over the paper supports. After drying for 24 hours at room temperature and for 24 hours at 40° C., the test samples were irradiated for 24 hours with ultraviolet light. Test discs having a diameter of 50 mm were cut from the pasteboard and sterilized with ethylene oxide.
(§3) Sabouraud-plates were seeded with a 0.2 ml suspension of either Aspergillus niger or Alternaria containing about 10^7 germs per ml. The test discs were put onto the plates and incubated at a temperature of 25° to 27° C. for a period of 3 weeks. After a period of 1 or 2 or 3 weeks, respectively, the contamination was rated as follows:
(§4) 1=very small fungus formation (0-5% of the entire surface)
(§5) 2=weak fungus formation (5-25% of the entire surface)
(§6) 3=medium fungus formation (25 to 50% of the entire surface)
(§7) 4=strong fungus formation (50-99% of the entire surface)
(§8) 5=no inhibition of fungus formation.
(§9) A known tetradecane-sulfonic acid adduct of 2-methoxycarbonylaminobenzimidazole (BCM), CARBENDASULF (Hoechst AG, Frankfurt/Main, Germany; prepared according to Example 1 of U.S. Pat. No. 4,046,906), was used for comparison.

Alternaria = test: Test Method A: fungus formation on treated paint/plaster discs, Alternaria; assay type: cell-based
Procedure: as §1, §2, §3, §4, §5, §6, §7, §8, §9

[1] = acrylic dispersion paint, conc. 0.01%, 1 week
[2] = acrylic dispersion paint, conc. 0.01%, 2 weeks
[3] = acrylic dispersion paint, conc. 0.01%, 3 weeks
[4] = acrylic dispersion paint, conc. 0.02%, 1 week
[5] = acrylic dispersion paint, conc. 0.02%, 2 weeks
[6] = acrylic dispersion paint, conc. 0.02%, 3 weeks
[7] = acrylic dispersion paint, conc. 0.05%, 1 week
[8] = acrylic dispersion paint, conc. 0.05%, 2 weeks
[9] = acrylic dispersion paint, conc. 0.05%, 3 weeks

COC(=O)Nc1nc2ccccc2[nH]1 [CARBENDASULF, tetradecane-sulfonic acid adduct of 2-methoxycarbonylaminobenzimidazole (BCM)] was tested, and the “contamination rating (fungus formation)” value (Aspergillus niger; [1]) was 3 (medium fungus formation (25 to 50% of the entire surface)), the “contamination rating (fungus formation)” value (Aspergillus niger; [2]) was 3 (medium fungus formation (25 to 50% of the entire surface)) and the “contamination rating (fungus formation)” value (Aspergillus niger; [3]) was 4 (strong fungus formation (50-99% of the entire surface)). The “contamination rating (fungus formation)” value (Aspergillus niger; [4]) was 2 (weak fungus formation (5-25% of the entire surface)), the “contamination rating (fungus formation)” value (Aspergillus niger; [5]) was 2 (weak fungus formation (5-25% of the entire surface)) and the “contamination rating (fungus formation)” value (Aspergillus niger; [6]) was 3 (medium fungus formation (25 to 50% of the entire surface)). The “contamination rating (fungus formation)” value (Aspergillus niger; [7]) was 1 (very small fungus formation (0-5% of the entire surface)), the “contamination rating (fungus formation)” value (Aspergillus niger; [8]) was 1 (very small fungus formation (0-5% of the entire surface)) and the “contamination rating (fungus formation)” value (Aspergillus niger; [9]) was 2 (weak fungus formation (5-25% of the entire surface)). The “contamination rating (fungus formation)” value (Aspergillus niger; plaster, conc. 0.01%, 1 week) was 2 (weak fungus formation (5-25% of the entire surface)), the “contamination rating (fungus formation)” value (Aspergillus niger; plaster, conc. 0.01%, 2 weeks) was 3 (medium fungus formation (25 to 50% of the entire surface)) and the “contamination rating (fungus formation)” value (Aspergillus niger; plaster, conc. 0.01%, 3 weeks) was 3 (medium fungus formation (25 to 50% of the entire surface)). The “contamination rating (fungus formation)” value (Aspergillus niger; plaster, conc. 0.02%, 1 week) was 1 (very small fungus formation (0-5% of the entire surface)), the “contamination rating (fungus formation)” value (Aspergillus niger; plaster, conc. 0.02%, 2 weeks) was 2 (weak fungus formation (5-25% of the entire surface)) and the “contamination rating (fungus formation)” value (Aspergillus niger; plaster, conc. 0.02%, 3 weeks) was 3 (medium fungus formation (25 to 50% of the entire surface)). The “contamination rating (fungus formation)” value (Aspergillus niger; plaster, conc. 0.05%, 1 week) was 1 (very small fungus formation (0-5% of the entire surface)), the “contamination rating (fungus formation)” value (Aspergillus niger; plaster, conc. 0.05%, 2 weeks) was 1 (very small fungus formation (0-5% of the entire surface)) and the “contamination rating (fungus formation)” value (Aspergillus niger; plaster, conc. 0.05%, 3 weeks) was 2 (weak fungus formation (5-25% of the entire surface)). For the same compound, the “contamination rating (fungus formation)” value (Alternaria; [1]) was 3 (medium fungus formation (25 to 50% of the entire surface)), the “contamination rating (fungus formation)” value (Alternaria; [2]) was 3 (medium fungus formation (25 to 50% of the entire surface)) and the “contamination rating (fungus formation)” value (Alternaria; [3]) was 4 (strong fungus formation (50-99% of the entire surface)). The “contamination rating (fungus formation)” value (Alternaria; [4]) was 2 (weak fungus formation (5-25% of the entire surface)), the “contamination rating (fungus formation)” value (Alternaria; [5]) was 2 (weak fungus formation (5-25% of the entire surface)) and the “contamination rating (fungus formation)” value (Alternaria; [6]) was 3 (medium fungus formation (25 to 50% of the entire surface)). The “contamination rating (fungus formation)” value (Alternaria; [7]) was 1 (very small fungus formation (0-5% of the entire surface)), the “contamination rating (fungus formation)” value (Alternaria; [8]) was 2 (weak fungus formation (5-25% of the entire surface)) and the “contamination rating (fungus formation)” value (Alternaria; [9]) was 2 (weak fungus formation (5-25% of the entire surface)). For the same compound, the “contamination rating (fungus formation)” value (Alternaria; plaster, conc. 0.01%, 1 week) was 2 (weak fungus formation (5-25% of the entire surface)), the “contamination rating (fungus formation)” value (Alternaria; plaster, conc. 0.01%, 2 weeks) was 3 (medium fungus formation (25 to 50% of the entire surface)) and the “contamination rating (fungus formation)” value (Alternaria; plaster, conc. 0.01%, 3 weeks) was 4 (strong fungus formation (50-99% of the entire surface)). The “contamination rating (fungus formation)” value (Alternaria; plaster, conc. 0.02%, 1 week) was 1 (very small fungus formation (0-5% of the entire surface)), the “contamination rating (fungus formation)” value (Alternaria; plaster, conc. 0.02%, 2 weeks) was 2 (weak fungus formation (5-25% of the entire surface)) and the “contamination rating (fungus formation)” value (Alternaria; plaster, conc. 0.02%, 3 weeks) was 4 (strong fungus formation (50-99% of the entire surface)). For the same compound, the “contamination rating (fungus formation)” value (Alternaria; plaster, conc. 0.05%, 1 week) was 1 (very small fungus formation (0-5% of the entire surface)), the “contamination rating (fungus formation)” value (Alternaria; plaster, conc. 0.05%, 2 weeks) was 2 (weak fungus formation (5-25% of the entire surface)) and the “contamination rating (fungus formation)” value (Alternaria; plaster, conc. 0.05%, 3 weeks) was 2 (weak fungus formation (5-25% of the entire surface)).
